In experiment [1] the target is T1, bFFAR2 (bovine FFAR2/GPR43) (Bos taurus, UniProt A0ACM8QIU6).
T1 construct: full-length synthetic cDNA, N-terminal FLAG tag; transiently expressed in HEK293A cells
T1 sequence (A0ACM8QIU6 1-329): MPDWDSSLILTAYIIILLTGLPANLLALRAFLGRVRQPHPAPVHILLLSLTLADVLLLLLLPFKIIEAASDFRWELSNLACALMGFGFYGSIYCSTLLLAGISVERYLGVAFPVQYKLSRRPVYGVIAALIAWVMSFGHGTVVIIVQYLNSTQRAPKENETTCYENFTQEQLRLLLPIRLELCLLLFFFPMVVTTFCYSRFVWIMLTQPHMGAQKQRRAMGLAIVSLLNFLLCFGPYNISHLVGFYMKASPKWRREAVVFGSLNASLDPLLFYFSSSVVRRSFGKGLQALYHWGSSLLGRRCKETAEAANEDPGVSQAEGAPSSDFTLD
As to the kind of experiment: SRE luciferase reporter gene assay, HEK293A expressing bFFAR2. In kind it is cell-based. An excerpt:
SRE luciferase reporter gene assay, HEK293A expressing bFFAR2 on bFFAR2 (bovine FFAR2/GPR43)

For experiment [2], the target named is T1, bFFAR2 (bovine FFAR2/GPR43). The experiment is described as follows: BRET, mini-Gαi recruitment to bFFAR2-Rluc8, HEK293A. In kind it is cell-based. The text has this:
BRET, mini-Gαi recruitment to bFFAR2-Rluc8, HEK293A on bFFAR2 (bovine FFAR2/GPR43)

In general, EC50 refers to the concentration needed to bring the measured effect to its halfway point. The low end stands for higher potency in that assay, the high end for lower potency in that assay. As to `CC(C)C(=O)O` [2MP, 2-methyl-propanoic acid], it took 234 µM to reach a half-maximal effect in experiment [1] (EC50).

In turn, `CC(C)CC(=O)O` [3MB, 3-methyl-butanoic acid] showed an EC50 in experiment [2] of 75.9 µM.

Turning to `CCCCCCCC(=O)O` [C8:0], the mGαi recruitment in experiment [2] (partial agonist, AUC over 10 min, -log10 of EC50, unreliable (EC50 above the 1 mM dose of Figure 1)) came to 2.57 ± 0.40.

`CCCCCC(=O)O` [C6:0]: the concentration for a half-maximal effect (EC50) in experiment [2] is 72.4 µM.

`CCCCCCC(=O)O` [C7:0]: in experiment [2], a half-maximal response (EC50) required 126 µM.

In experiment [2], `CCCCC(=O)O` [C5:0] gave an EC50 of 61.7 µM.

For `CC(=O)O` [C2:0], the EC50 in experiment [2] is 9770 µM.

In turn, `CCC(=O)O` [C3:0] had a concentration giving a half-maximal response (EC50) in experiment [2] of 977 µM.

In experiment [2], `CCCC(=O)O` [C4:0] had a concentration for a half-maximal effect (EC50) of 129 µM. This EC50 lies about 7.6-fold lower than the previous one.

Values taken from paper PMC12405480, “Endogenous ligands of bovine FFAR2/GPR43 display distinct pharmacological properties” (Frontiers in Cell and Developmental Biology, 2025).
